Measured values published in paper PMC8653295 (Chemistry (Weinheim an Der Bergstrasse, Germany), 2021).
Values joined by “and” are separate entries in the source; they are usually repeats but may differ in a detail not shown here. Equal values may be shown once. “Also recorded” adds a separate entry of the source.

Key:
[1] = molecular target: SARS‐CoV PL^pro (Severe acute respiratory syndrome coronavirus, UniProt P0C6X7); experiment: biochemical; type: biochemical; conditions: for inhibition of SARS-CoV PLpro: 10 µM
[2] = molecular target: interaction of the RBD of the SARS‐CoV‐2 S protein with the ACE2 receptor (Severe acute respiratory syndrome coronavirus 2, UniProt P0DTC2); type: binding; conditions: for inhibition of the S/ACE2 interaction: 20 µM
[3] = molecular target: SARS‐CoV‐2 PL^pro (Severe acute respiratory syndrome coronavirus 2, UniProt P0DTD1); experiment: biochemical; type: biochemical; conditions: for inhibition of SARS-CoV-2 PLpro: 1 µM
[4] = tested on: SARS‐CoV‐2; type: cell-based
[5] = tested on: CaLu‐3 cells
[6] = tested on: Caco‐2 cells

Question: Which results are given for `CCn1[c]([Au-][Cl])[n+](CC)c2cc(C(=O)OC)ccc21` [Au‐12]?
Answer: IC50 [1]: 330 ± 110 nM; inhibition of the S/ACE2 interaction [2]: 19%; IC50 [3]: 1100 ± 60 nM; antiviral effect against SARS‐CoV‐2 replication (in words) [4]: at 6.25 and 25 μM concentrations efficiently inhibited; also recorded: antiviral activity starting at low micromolar concentrations

Question: With “Rb6Na6[{(p‐tolyl)Sb}4(GeW9 O34)2] ⋅ 40H2O [POM‐7]” as the compound, how does the “inhibition of SARS-CoV PLpro” value [1] read?
Answer: The value was 92%.

Question: What about the “cytotoxicity (in words)” value [5] of the same compound?
Answer: The value was “strongly toxic”.

Question: And the “inhibition of the S/ACE2 interaction” value [2]?
Answer: The value was 98%.

Question: And the “inhibition of SARS-CoV-2 PLpro” value [3]?
Answer: Its value is 67%.

Question: And the “cytotoxicity (in words)” value [6]?
Answer: The value was “strongly toxic”.

Question: `CO[C@H]1O[C@H](CO)[C@@H](O)[C@H](O)[C@H]1NC(=O)C1CCN(C(=S)[S-])CC1.[Au+3].[Br-].[Br-]` [Au‐34] was tested. Which IC50 [1] did it give?
Answer: The IC50 was 1150 ± 340 nM.

Question: And the “inhibition of SARS-CoV PLpro” value [1]?
Answer: The value was 86%.

Question: What about the “concentration up to which no significant cytotoxic effects / tolerated well” value [5] of the same compound?
Answer: The value was no less than 500 µM.

Question: And the “inhibition of the S/ACE2 interaction” value [2]?
Answer: The value was 15%.

Question: And the IC50 [3]?
Answer: Its IC50 is 90 ± 40 nM.

Question: What about the “inhibition of SARS-CoV-2 PLpro” value [3] of the same compound?
Answer: Its value is 98%.

Question: What about the “antiviral effect against SARS‐CoV‐2 replication (in words)” value (“antiviral effect … (in words)” below) [4] of the same compound?
Answer: The value was “inactive at low dosages; also recorded: completely blocked SARS‐CoV‐2 at 500 μM; also recorded: strongly blocked viral replication at a high dosage of 500 μM”.

Question: And the “concentration up to which no significant cytotoxic effects / tolerated well” value [6]?
Answer: The value was no less than 500 µM.

Question: What does the source list for Na6[TeW6O24] ⋅ 22H2O [POM‐5]?
Answer: inhibition of SARS-CoV PLpro [1]: 49%; concentration up to which no significant cytotoxic effects / tolerated well [5]: ≥ 200 µM; inhibition of SARS-CoV-2 PLpro [3]: 69%; concentration up to which no significant cytotoxic effects / tolerated well [6]: ≥ 200 µM

Question: Which results are given for `O=C(O)CC([S-])C(=O)O.[Au+]` (stereo not drawn) [Au‐2, aurothiomalate, reference compound]?
Answer: IC50 [1]: 690 ± 200 nM; IC50 SARS‐CoV PL^pro [1]: Submicromolar; inhibition of SARS-CoV PLpro [1]: 91% and > 50%; concentration up to which no significant cytotoxic effects / tolerated well [5]: ≥ 500 µM; inhibition of the S/ACE2 interaction [2]: 18%; IC50 [3]: 600 ± 250 nM; IC50 SARS‐CoV‐2 PL^pro [3]: Submicromolar; inhibition of SARS-CoV-2 PLpro [3]: 64% and > 50%; antiviral effect against SARS‐CoV‐2 replication (in words) [4]: not active; concentration up to which no significant cytotoxic effects / tolerated well [6]: ≥ 500 µM

Question: `CO[C@H]1O[C@H](CNC(=O)C2CCN(C(=S)[S-])CC2)[C@@H](O)[C@H](O)[C@H]1O.[Au+3].[Br-].[Br-]` [Au‐33] was tested. Which IC50 [1] did it give?
Answer: Its IC50 is 1040 ± 270 nM.

Question: And the “inhibition of SARS-CoV PLpro” value [1]?
Answer: Its value is 78%.

Question: And the “concentration up to which no significant cytotoxic effects / tolerated well” value [5]?
Answer: Its value is no less than 500 µM.

Question: What about the “inhibition of the S/ACE2 interaction” value [2] of the same compound?
Answer: Its value is 10%.

Question: And the IC50 [3]?
Answer: The IC50 was 210 ± 40 nM.

Question: What about the “inhibition of SARS-CoV-2 PLpro” value [3] of the same compound?
Answer: Its value is 99%.

Question: What about the “antiviral effect … (in words)” value [4] of the same compound?
Answer: The value was “inactive at low dosages; also recorded: completely blocked SARS‐CoV‐2 at 500 μM; also recorded: strongly blocked viral replication at a high dosage of 500 μM”.

Question: And the “concentration up to which no significant cytotoxic effects / tolerated well” value [6]?
Answer: Its value is no less than 500 µM.

Question: What does the source list for Na12[SnO8Pd12(PO4)8] ⋅ 43H2O [POM‐2]?
Answer: inhibition of SARS-CoV PLpro [1]: 100%; concentration up to which no significant cytotoxic effects / tolerated well [5]: ≥ 200 µM; inhibition of the S/ACE2 interaction [2]: 50%; inhibition of SARS-CoV-2 PLpro [3]: 66%; concentration up to which no significant cytotoxic effects / tolerated well [6]: ≥ 200 µM

Question: Which “inhibition of SARS-CoV PLpro” value [1] does the source give for “[Pd16Na2O26 (OH)3Cl3((CH3)2As)8] ⋅ 0.25Na(CH3)2AsO2 ⋅ 17H2O [POM‐11]” here?
Answer: Its value is 100%.

Question: What about the “concentration up to which no significant cytotoxic effects / tolerated well” value [5] of the same compound?
Answer: The value was no less than 200 µM.

Question: What about the “inhibition of the S/ACE2 interaction” value [2] of the same compound?
Answer: The value was 75%.

Question: What about the “inhibition of SARS-CoV-2 PLpro” value [3] of the same compound?
Answer: The value was 85%.

Question: And the “antiviral effect … (in words)” value [4]?
Answer: Its value is “antiviral activity starting at low micromolar concentrations”.

Question: And the “concentration at which antiviral effects were shown” value [4]?
Answer: The value was 50 µM.

Question: What about the “concentration up to which no significant cytotoxic effects / tolerated well” value [6] of the same compound?
Answer: The value was no less than 200 µM.

Question: How did the “activity against SARS‐CoV PL^pro (in words)” value [1] turn out when `[Cl-].[Cl-].[Ti+4].c1cc[cH-]c1.c1cc[cH-]c1` [Ti‐1, titanocene dichloride, reference compound] was run?
Answer: The value was “inactive”.

Question: What about the “inhibition of SARS-CoV PLpro” value [1] of the same compound?
Answer: Its value is 6%.

Question: And the “concentration up to which no significant cytotoxic effects / tolerated well” value [5]?
Answer: Its value is no less than 500 µM.

Question: And the “inhibition of the S/ACE2 interaction” value [2]?
Answer: Its value is 69%.

Question: What about the IC50 ([2]; read-out: IC50 as inhibitors of the S/ACE2 interaction) of the same compound?
Answer: The IC50 was 3900 ± 300 nM.

Question: What about the “activity against SARS‐CoV‐2 PL^pro (in words)” value [3] of the same compound?
Answer: The value was “inactive”.

Question: What about the “inhibition of SARS-CoV-2 PLpro” value [3] of the same compound?
Answer: The value was -13%.

Question: What about the “antiviral effect … (in words)” value [4] of the same compound?
Answer: Its value is “active at 125 and 500 μM; also recorded: strongly blocked viral replication at a high dosage of 500 μM”.

Question: And the “concentration at which antiviral effects were shown” value [4]?
Answer: The value was “higher than 100 μM”.

Question: And the “concentration up to which no significant cytotoxic effects / tolerated well” value [6]?
Answer: Its value is no less than 500 µM.

Question: Na12[PbO8Pd12 (PO4)8] ⋅ 38H2O [POM‐1] was tested. Which “inhibition of SARS-CoV PLpro” value [1] did it give?
Answer: Its value is 100%.

Question: What about the “concentration up to which no significant cytotoxic effects / tolerated well” value [5] of the same compound?
Answer: The value was no less than 200 µM.

Question: And the “inhibition of the S/ACE2 interaction” value [2]?
Answer: The value was 52%.

Question: And the “inhibition of SARS-CoV-2 PLpro” value [3]?
Answer: Its value is 68%.

Question: And the “concentration up to which no significant cytotoxic effects / tolerated well” value [6]?
Answer: Its value is no less than 200 µM.

Question: How did the “antiviral effect … (in words)” value [4] turn out when `CCC(CC)COC(=O)[C@H](C)N[P@](=O)(OC[C@H]1O[C@@](C#N)(c2ccc3c(N)ncnn23)[C@H](O)[C@@H]1O)Oc1ccccc1` [Remdesivir, remdesivir, reference compound] was run?
Answer: Its value is “efficiently inhibited viral replication at low micromolar concentrations”.

Question: How did the “inhibition of SARS-CoV PLpro” value [1] turn out when `Cc1ccc(C(C)C)cc1.Cc1ccc2c(c1)[n+](Cc1ccccc1)[c-]n2Cc1ccccc1.[Br-].[Br-].[Ru+2]` [Ru‐2] was run?
Answer: Its value is 20%.

Question: What about the “inhibition of the S/ACE2 interaction” value [2] of the same compound?
Answer: The value was 0%.

Question: And the “inhibition of SARS-CoV-2 PLpro” value [3]?
Answer: Its value is 5%.

Question: Which results are given for `O=[N+]([O-])[O-].[Ag+]` [Ag‐1, silver nitrate, reference compound]?
Answer: activity against SARS‐CoV PL^pro (in words) [1]: completely inhibited; inhibition of SARS-CoV PLpro [1]: 100%; inhibition of the S/ACE2 interaction [2]: 6%; IC50 [3]: 450 ± 210 nM; inhibition of SARS-CoV-2 PLpro [3]: 72%

Question: With K6H2[CoW11TiO40] ⋅ 12H2O [POM‐4] as the compound, how does the “activity against SARS‐CoV PL^pro (in words)” value [1] read?
Answer: Its value is “active only against the enzyme from SARS‐CoV”.

Question: What about the “inhibition of SARS-CoV PLpro” value [1] of the same compound?
Answer: Its value is 44%.

Question: And the “inhibition of the S/ACE2 interaction” value [2]?
Answer: The value was 82%.

Question: And the “inhibition of SARS-CoV-2 PLpro” value [3]?
Answer: The value was 7%.

Question: How did the “inhibition of SARS-CoV PLpro” value [1] turn out when “Rb5.5Na4.5[{(p‐tolyl)Sb}4(PW9O34)2] ⋅ 40H2O [POM‐6]” was run?
Answer: The value was 80%.

Question: And the “cytotoxicity (in words)” value [5]?
Answer: The value was “strongly toxic”.

Question: And the “inhibition of the S/ACE2 interaction” value [2]?
Answer: The value was 91%.

Question: What about the “inhibition of SARS-CoV-2 PLpro” value [3] of the same compound?
Answer: Its value is 58%.

Question: What about the “cytotoxicity (in words)” value [6] of the same compound?
Answer: Its value is “strongly toxic”.

Question: For `C1=CCCC=CCC1.Cn1[c-][n+](C)c(-c2ccc(F)cc2)c1.[Cl-].[Rh+]` [Rh‐10], which “inhibition of SARS-CoV PLpro” value [1] is on record?
Answer: The value was 90%.

Question: And the “inhibition of the S/ACE2 interaction” value [2]?
Answer: The value was 14%.

Question: And the “inhibition of SARS-CoV-2 PLpro” value [3]?
Answer: Its value is 45%.
